Data taken from the supplement of paper PMC11208160.

Assay: recombinant barcode read abundance after kanamycin selection (control-corrected) (log10(CPM+1)); higher = more efficient recombination; sequences stand for … in AGTGCAGAGAAAATCGGCCAGTTTTCTCTGCCTGCAGTCCGCATGCCGT…AGATTTATGCAGCGGACTGCCTTTCTCCCAAAGTGATAAACCGGACAGTATCATGGACCGGTTTTCCCGGTAATCCGTATTTGCAAGGTTGGTTTCACT; site = the 11-nt target
How it was run: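 Duplicate cultures were plated either on chloramphenicol/ampicillin LB agar, serving as control, or on chloramphenicol/ampicillin/kanamycin with 0.1 mM IPTG. These came from a pooled E. coli library co-electroporated with a donor plasmid, each member pairing a target with an IS621 bridge RNA target-binding loop. Recombination efficiency equals averaged, control-corrected counts per million of recombinant-junction barcodes. It is listed as log10(CPM+1).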
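Further: IS621 recombinase and bridge RNA in Escherichia coli cells.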

In order of falling “recombinant barcode read abundance (log10)” value:
1. GACCGTCCTTGGGTTCTAACCTGTTGCGT (site GACCGTCCTAC)  2.65
2. GACGGGGCTTGGGTTCTAACCTGTTGCAG (site GACGGGGCTCT)  2.59
3. GACGGCACTTGGGTTCTAACCTGTTGCGG (site GACGGCACTCC)  2.56
4. GACGCCTCTTGGGTTCTAACCTGTTGCGC (site GACGCCTCTGC)  2.25
5. GACTACCCTTGGGTTCTAACCTGTTGCCT (site GACTACCCTAG)  2.2
6. GACGTAGCTTGGGTTCTAACCTGTTGCCT (site GACGTAGCTAG)  1.6
7. GACATCCCTTGGGTTCTAACCTGTTGCCT (site GACATCCCTAG)  1.45
8. GAATGTCCTTGGGTTCTAACCTGTTGCAT (site GAATGTCCTAT)  1.39
9. GACCGAGCTTGGGTTCTAACCTGTTGCCT (site GACCGAGCTAG)  1.33
10. GACAGGACTTGGGTTCTAACCTGTTGCCT (site GACAGGACTAG)  1.32
11. GACGTTGCTTGGGTTCTAACCTGTTGCCT (site GACGTTGCTAG)  1.32
12. GACGTACCTTGGGTTCTAACCTGTTGCCT (site GACGTACCTAG)  1.31
13. GACGGCTCTTGGGTTCTAACCTGTTGCCT (site GACGGCTCTAG)  1.3
14. GACGGACCTTGGGTTCTAACCTGTTGCTA (site GACGGACCTTA)  1.26
15. GACATCTCTTGGGTTCTAACCTGTTGCCT (site GACATCTCTAG)  1.19
16. GACCGTCCTTGGGTTCTAACCTGTTGCGT (site GACCGTCCTAT)  1.14
17. GACCTGGCTTGGGTTCTAACCTGTTGCCG (site GACCTGGCTCG)  0.886
18. GACTCCGCTTGGGTTCTAACCTGTTGCCT (site GACTCCGCTAG)  0.876
19. GACGGATCTTGGGTTCTAACCTGTTGCCT (site GACGGATCTAA)  0.842
20. GACATCACTTGGGTTCTAACCTGTTGCCT (site GACATCACTAG)  0.767
21. GACGGGGCTTGGGTTCTAACCTGTTGCAG (site GACGGAGCTCA)  0.753
22. GACTCCGCTTGGGTTCTAACCTGTTGCCT (site TACTCCGCTAG)  0.692
23. GACCGTCCTTGGGTTCTAACCTGTTGCGT (site GACCGTCCTAG)  0.573
24. GACACGCCTTGGGTTCTAACCTGTTGCGT (site GACACGCCTAC)  0.571
25. GACACGTCTTGGGTTCTAACCTGTTGCCT (site GACACGTCTAG)  0.534
26. GACGTAGCTTGGGTTCTAACCTGTTGCCT (site GGCGTAGCTAG)  0.52
27. GACGCCTCTTGGGTTCTAACCTGTTGCCT (site GACGCCTCTAG)  0.47
28. GACGTACCTTGGGTTCTAACCTGTTGCCT (site GACATACCTAG)  0.428
29. GACGCCACTTGGGTTCTAACCTGTTGCCT (site GACGCCACTAG)  0.425
30. GACGGCTCTTGGGTTCTAACCTGTTGCCT (site GCCGGCTCTAG)  0.365
31. GACCGAGCTTGGGTTCTAACCTGTTGCCT (site GACCGTGCTAG)  0.345
32. GACCGTCCTTGGGTTCTAACCTGTTGCGT (site GACCGTCCTAA)  0.306
33. GACACGCCTTGGGTTCTAACCTGTTGCCT (site GACACGCCTAA)  0.301
34. GACGTAGCTTGGGTTCTAACCTGTTGCCT (site GTCGTAGCTAG)  0.279
35. GAATATTCTTGGGTTCTAACCTGTTGCCT (site GATTATTCTAG)  0.27
36. GACGCCTCTTGGGTTCTAACCTGTTGCGC (site TTGAAACCTAG)  0.26
37. GACAATGCTTGGGTTCTAACCTGTTGCAT (site ACGTGGACTTA)  0.229
38. GACGCCTCTTGGGTTCTAACCTGTTGCCT (site AACGCCTCTAG)  0.227
39. GACGGATCTTGGGTTCTAACCTGTTGCCT (site GACGGATCTAG)  0.212
40. GACACAACTTGGGTTCTAACCTGTTGCCA (site CGGCTCCCTAA)  0.208
41. GACACGCCTTGGGTTCTAACCTGTTGCGT (site GACACGCCTAA)  0.205
42. GACGCCTCTTGGGTTCTAACCTGTTGCCT (site CACGCCTCTAG)  0.202
43. GACAGGACTTGGGTTCTAACCTGTTGCCT (site AACACGACTAG)  0.196
44. GACATCACTTGGGTTCTAACCTGTTGCCT (site GACATCGCTAG)  0.192
45. GACCTGGCTTGGGTTCTAACCTGTTGCCG (site GACCTGACTTG)  0.176
46. GACGGCACTTGGGTTCTAACCTGTTGCGG (site TCTCATGCTAT)  0.166
47. GACGCCACTTGGGTTCTAACCTGTTGCCT (site AACGCCACTAG)  0.162
48. GACACGCCTTGGGTTCTAACCTGTTGCCT (site GACACGCCTAG)  0.156
49. GACACGCCTTGGGTTCTAACCTGTTGCGT (site GACACGCCTAG)  0.156
50. GACACGCCTTGGGTTCTAACCTGTTGCGT (site GACACGCCTAT)  0.147
51. GACACGCCTTGGGTTCTAACCTGTTGCCT (site GACACGCCTAT)  0.146
52. GACCGAGCTTGGGTTCTAACCTGTTGCCT (site GACCGGGCTAG)  0.145
53. GACATCCCTTGGGTTCTAACCTGTTGCCT (site GACATCTCTAG)  0.142
54. GACGTACCTTGGGTTCTAACCTGTTGCCT (site GACCTACCTAG)  0.133
55. GACAATGCTTGGGTTCTAACCTGTTGCAT (site GACAATGCTAT)  0.105
56. GACATCTCTTGGGTTCTAACCTGTTGCCT (site GACATCACTAG)  0.105
57. GACGTTGCTTGGGTTCTAACCTGTTGCCT (site GACTTTACTAG)  0.102
58. GACGGATCTTGGGTTCTAACCTGTTGCCT (site GACGGATCTAC)  0.101
59. GACATCTCTTGGGTTCTAACCTGTTGCCT (site GACATCGCTAG)  0.0954
60. GACGGATCTTGGGTTCTAACCTGTTGCCT (site GACGGATCTAT)  0.0859
61. GACGCAACTTGGGTTCTAACCTGTTGCAT (site GACGCAACTAT)  0.0836
62. GACGTAGCTTGGGTTCTAACCTGTTGCCT (site GCCGTAGCTAG)  0.083
63. GACATCACTTGGGTTCTAACCTGTTGCCT (site GACATCTCTAG)  0.0671
64. GACACGCCTTGGGTTCTAACCTGTTGCCT (site GACACGCCTAC)  0.0669
65. GACGGACCTTGGGTTCTAACCTGTTGCTA (site ATAACGGCTAG)  0.0648
66. GAATGTCCTTGGGTTCTAACCTGTTGCAT (site GCATGTCCTAT)  0.0491
67. GACATCCCTTGGGTTCTAACCTGTTGCCT (site GACATCGCTAG)  0.0465
68. GACATCCCTTGGGTTCTAACCTGTTGCCT (site GACATCACTAG)  0.045
69. GACGCAACTTGGGTTCTAACCTGTTGCAT (site GACGCTTCTAT)  0.0419
70. GACATCACTTGGGTTCTAACCTGTTGCCT (site GACATCCCTAG)  0.0352
71. GACTACCCTTGGGTTCTAACCTGTTGCCT (site ATGCTGTCTTA)  0.0344
72. GACCGAGCTTGGGTTCTAACCTGTTGCCT (site GACCGCGCTAG)  0.0201
73. GACACAACTTGGGTTCTAACCTGTTGCCA (site GACACAACTTG)  0.018
74. GACGTACCTTGGGTTCTAACCTGTTGCCT (site GACTTACCTAG)  0.0104
75. GACATCTCTTGGGTTCTAACCTGTTGCCT (site GACATCCCTAG)  0.00568
76. GACACGTCTTGGGTTCTAACCTGTTGCCT (site GACACCTCTAA)  0
77. GACGCCTCTTGGGTTCTAACCTGTTGCCT (site TACGCCTCTAG)  0
